Measured values reported in ChEMBL document CHEMBL2413038, “Synthesis and bioevaluation of novel 4-aminoquinoline-tetrazole derivatives as potent antimalarial agents” (Eur J Med Chem, 2013).
Values after ≈ are worked out from the molar mass of the structure shown. Active and inactive are the calls of the source. No cut-off for these calls is given here.

Legend:
Plasma = assay: Inhibition of beta-hematin formation in Plasmodium yoelii-infected Swiss albino mouse plasma using hemin as substrate after 16 hrs; assay type: functional, cell-free
Plasmodium falciparum [1] = assay: Resistance index, ratio of IC50 for chloroquine-resistant Plasmodium falciparum K1 to IC50 for chloroquine-sensitive Plasmodium falciparum 3D7; assay type: functional
[2] = Selectivity index, ratio of CC50 for African green monkey Vero cells to IC50 for Plasmodium falciparum; assay type: functional
Plasmodium falciparum [3] = assay: Antimalarial activity against chloroquine-resistant Plasmodium falciparum K1 after 72 hrs by MSF assay; assay type: functional, organism-based; settings: K1, 72 h
Plasmodium falciparum [4] = assay: Antimalarial activity against chloroquine-sensitive Plasmodium falciparum 3D7 after 72 hrs by MSF assay; assay type: functional, organism-based; settings: 3D7, 72 h
Plasmodium yoelii [5] = assay: Antimalarial activity against chloroquine-resistant Plasmodium yoelii N-67 infected in Swiss mouse assessed as cured animal at 100 mg/kg, po for 4 days measured on day 28 post infection relative to control; assay type: functional
Plasmodium yoelii [6] = assay: Antimalarial activity against chloroquine-resistant Plasmodium yoelii N-67 infected in Swiss mouse assessed as mean survival time at 100 mg/kg, po qd for 4 days; assay type: functional
Plasmodium yoelii [7] = assay: Antimalarial activity against chloroquine-resistant Plasmodium yoelii N-67 infected in Swiss mouse assessed as mean survival time at 50 mg/kg, ip qd for 4 days; assay type: functional; settings: route intraperitoneal
[8] = Clearance in Sprague-Dawley rat at 10 mg/kg, po; assay type: ADME, organism-based; parameters: dose 10 mg/kg, route oral; settings: in vivo
Rattus norvegicus [9] = assay: Volume of distribution in Sprague-Dawley rat at 10 mg/kg, po; assay type: ADME, organism-based; parameters: dose 10 mg/kg, route oral; settings: in vivo
[10] = Elimination half life in Sprague-Dawley rat at 10 mg/kg, po; assay type: ADME, organism-based; parameters: dose 10 mg/kg, route oral; settings: in vivo, read-out: beta t1/2 (converted)
[11] = AUC (0 to t) in Sprague-Dawley rat at 10 mg/kg, po; assay type: ADME, organism-based; parameters: dose 10 mg/kg, route oral; settings: plasma
[12] = Tmax in Sprague-Dawley rat at 10 mg/kg, po; assay type: ADME, organism-based; parameters: dose 10 mg/kg, route oral; settings: in vivo
[13] = Cmax in Sprague-Dawley rat at 10 mg/kg, po; assay type: ADME, organism-based; parameters: dose 10 mg/kg, route oral; settings: in vivo
Plasmodium yoelii [14] = assay: Antimalarial activity against chloroquine-resistant Plasmodium yoelii N-67 infected in Swiss mouse assessed as cured animal at 50 mg/kg, ip qd for 4 days measured on day 28 post infection relative to control; assay type: functional
Plasmodium yoelii [15] = assay: Antimalarial activity against chloroquine-resistant Plasmodium yoelii N-67 infected in Swiss mouse assessed as mouse survival at 100 mg/kg, po qd for 4 days measured on day 28 post infection relative to control; assay type: functional
Plasmodium yoelii [16] = assay: Antimalarial activity against chloroquine-resistant Plasmodium yoelii N-67 infected in Swiss mouse assessed as mouse survival at 50 mg/kg, ip qd for 4 days measured on day 28 post infection relative to control; assay type: functional
Plasmodium yoelii [17] = assay: Antimalarial activity against chloroquine-resistant Plasmodium yoelii N-67 infected in Swiss mouse assessed as suppression of parasitaemia level at 100 mg/kg, po qd for 4 days relative to control; assay type: functional
Plasmodium yoelii [18] = assay: Antimalarial activity against chloroquine-resistant Plasmodium yoelii N-67 infected in Swiss mouse assessed as suppression of parasitaemia level at 50 mg/kg, ip qd for 4 days relative to control; assay type: functional; settings: route intraperitoneal
Plasmodium yoelii [19] = assay: Antimalarial activity against chloroquine-resistant Plasmodium yoelii N-67 infected in Swiss mouse assessed as mouse survival at 10 mg/kg, ip qd for 4 days measured on day 28 post infection; assay type: functional, organism-based; parameters: dose 10 mg/kg
[20] = Clearance in Sprague-Dawley rat at 5 mg/kg, po; assay type: ADME, organism-based; parameters: dose 5 mg/kg, route oral; settings: in vivo
Rattus norvegicus [21] = assay: Volume of distribution in Sprague-Dawley rat at 5 mg/kg, po; assay type: ADME, organism-based; parameters: dose 5 mg/kg, route oral; settings: in vivo
Rattus norvegicus [22] = assay: Elimination half life in Sprague-Dawley rat at 5 mg/kg, po; assay type: ADME, organism-based; parameters: dose 5 mg/kg, route oral; settings: in vivo
Rattus norvegicus [23] = assay: AUC (0 to t) in Sprague-Dawley rat at 5 mg/kg, po; assay type: ADME, organism-based, Plasma; parameters: dose 5 mg/kg, route oral; settings: in vivo
Rattus norvegicus [24] = assay: Tmax in Sprague-Dawley rat at 5 mg/kg, po; assay type: ADME, organism-based; parameters: dose 5 mg/kg, route oral; settings: in vivo
Plasmodium yoelii [25] = assay: Antimalarial activity against chloroquine-resistant Plasmodium yoelii N-67 infected in Swiss mouse assessed as mean survival time at 10 mg/kg, po for 4 days; assay type: functional
Plasmodium yoelii [26] = assay: Antimalarial activity against chloroquine-resistant Plasmodium yoelii N-67 infected in Swiss mouse assessed as cured animal at 10 mg/kg, po for 4 days measured on day 28 post infection; assay type: functional, organism-based; parameters: dose 10 mg/kg
Plasmodium falciparum [27] = assay: Ratio of chloroquine IC50 to compound IC50 for chloroquine-resistant Plasmodium falciparum K1; assay type: functional

Compound	IC50 (Plasma) [µg/mL]	inhibition (Plasma)	Ratio IC50 (Plasmodium falciparum [1])	Ratio CC50/IC50 [2]	IC50 (Plasmodium falciparum [3]) [nM]	IC50 (Plasmodium falciparum [4]) [nM]	MST (Plasmodium yoelii [7]) [days]	Activity (Plasmodium yoelii [18]) [%]	Activity (Plasmodium yoelii [14])	Activity (Plasmodium yoelii [16])	other results
CCc1ccc(C(Nc2ccc(Nc3ccnc4cc(Cl)ccc34)cc2)c2nnnn2C(C)(C)C)cc1 (configuration not stated)	5.95 (≈ 11.6 µM)	Dose-dependent effect	13.4	3652.19	688	51.4					
CC(C)(C)n1nnnc1C(Nc1ccc(Nc2ccnc3cc(Cl)ccc23)cc1)c1ccc(Cl)cc1 (configuration not stated)	5.29 (≈ 10.2 µM)	Dose-dependent effect	13.4	4616.14	143	10.7	23.6	99.99			Activity (Plasmodium yoelii [5]): 60%; MST (Plasmodium yoelii [6]): 25.2 days; CL/F [8]: 61.7 mL/min; Vd (Rattus norvegicus [9]): 28.16 L; half-life [10]: 5.27 h; AUC(0-t) [11]: 593 ng·h/mL; Tmax [12]: 2 h; Cmax [13]: 49.2 ng/mL; Activity (Plasmodium yoelii [14]; route intraperitoneal): 60%; Activity (Plasmodium yoelii [15]): 60%; Activity (Plasmodium yoelii [16]; route intraperitoneal): 60%; Activity (Plasmodium yoelii [17]): 99.99%
CCN(CC)CCCC(C)Nc1ccnc2cc(Cl)ccc12 (configuration not stated) [CHLOROQUINE]	3.95 (≈ 12.3 µM)	Dose-dependent effect									Activity (Plasmodium yoelii [19]): inactive; CL/F [20]: 2.5 mL/min; Vd (Rattus norvegicus [21]): 1.49 L; beta t1/2 (Rattus norvegicus [22]): 9.5 h; AUCt (Rattus norvegicus [23]): 30.147 ng·h/mL; Tmax (Rattus norvegicus [24]): 0.91 h; MST (Plasmodium yoelii [25]): 16.5 days; Activity (Plasmodium yoelii [26]): inactive
Cc1ccc(C(Nc2ccc(Nc3ccnc4cc(Cl)ccc34)cc2)c2nnnn2C(C)(C)C)cc1 (configuration not stated)	5.39 (≈ 10.8 µM)	Dose-dependent effect	0.07		75.4	1010	11	21.3	inactive	inactive	Ratio IC50 (Plasmodium falciparum [27]): 3.38
COc1ccc(C(Nc2ccc(Nc3ccnc4cc(Cl)ccc34)cc2)c2nnnn2C(C)(C)C)cc1 (configuration not stated)	5.55 (≈ 10.8 µM)	Dose-dependent effect	6.6	702.34	384	57.7					
CC(C)(C)n1nnnc1C(NCCNc1ccnc2cc(Cl)ccc12)c1cccc2ccccc12 (configuration not stated)	6.33 (≈ 13 µM)	Dose-dependent effect	1.5	305.32	184	120					
COc1cc(C(Nc2ccc(Nc3ccnc4cc(Cl)ccc34)cc2)c2nnnn2C(C)(C)C)cc(OC)c1OC (configuration not stated)	5.65 (≈ 9.84 µM)	Dose-dependent effect	10.5	300.57	573	54.2					
CC(C)(C)n1nnnc1C(Nc1ccc(Nc2ccnc3cc(Cl)ccc23)cc1)c1ccc(Cl)c(Cl)c1 (configuration not stated)	5.4 (≈ 9.77 µM)	Dose-dependent effect	12.8	7076.29	142	11	16.83	71.49	inactive	inactive	
Clc1ccc(C(Nc2ccc(Nc3ccnc4cc(Cl)ccc34)cc2)c2nnnn2C2CCCCC2)cc1 (configuration not stated)	3.81 (≈ 7 µM)	Dose-dependent effect	0.9	694.18	139	156	10.4	20.43	inactive	inactive	
CC(C)(C)n1nnnc1C(Nc1ccc(Nc2ccnc3cc(Cl)ccc23)cc1)c1ccccc1 (configuration not stated)	5.55 (≈ 11.5 µM)	Dose-dependent effect		2383.47	> 1020	59.6					
CC(C)(C)n1nnnc1C(c1ccc(Cl)cc1)N1CCN(c2ccnc3cc(Cl)ccc23)CC1 (configuration not stated)	5.32 (≈ 10.7 µM)	Dose-dependent effect	0.2	182.96	159	787	13	73.91	inactive	inactive	
CC(C)(C)n1nnnc1C(Nc1ccc(Nc2ccnc3cc(Cl)ccc23)cc1)c1ccc(Br)cc1 (configuration not stated)	5.65 (≈ 10 µM)	Dose-dependent effect	19.8	2332.43	234	11.8	26	99.99			Activity (Plasmodium yoelii [5]): 40%; MST (Plasmodium yoelii [6]): 25.6 days; CL/F [8]: 32.3 mL/min; Vd (Rattus norvegicus [9]): 63.38 L; half-life [10]: 22.6 h; AUC(0-t) [11]: 704 ng·h/mL; Tmax [12]: 1.5 h; Cmax [13]: 44.4 ng/mL; Activity (Plasmodium yoelii [14]; route intraperitoneal): 60%; Activity (Plasmodium yoelii [15]): 60%; Activity (Plasmodium yoelii [16]; route intraperitoneal): 80%; Activity (Plasmodium yoelii [17]): 99.99%
COc1ccc(C(Nc2ccc(Nc3ccnc4cc(Cl)ccc34)cc2)c2nnnn2C(C)(C)C)cc1OC (configuration not stated)	5.42 (≈ 9.96 µM)	Dose-dependent effect	1	193.28	76.2	70.6	9.8	26.91	inactive	inactive	
Clc1ccc2c(Nc3ccc(NC(c4ccc(Br)cc4)c4nnnn4C4CCCCC4)cc3)ccnc2c1 (configuration not stated)	4.38 (≈ 7.44 µM)	Dose-dependent effect	0.8	1191.58	73.7	92.7	12.6	69.56	inactive	inactive	Ratio IC50 (Plasmodium falciparum [27]): 3.38
CC(C)(C)n1nnnc1C(NCCCNc1ccnc2cc(Cl)ccc12)c1ccc(Cl)cc1 (configuration not stated)	5.95 (≈ 12.3 µM)	Dose-dependent effect	9.2	248.65	754	81.4					
CC(C)(C)n1nnnc1C(Nc1ccc(Nc2ccnc3cc(Cl)ccc23)cc1)c1cccc2ccccc12 (configuration not stated)	5.12 (≈ 9.59 µM)	Dose-dependent effect	2.7	3815.38	77.8	28	12	57.03	inactive	inactive	Ratio IC50 (Plasmodium falciparum [27]): 3.38
CC(C)(C)n1nnnc1C(NCCNc1ccnc2cc(Cl)ccc12)c1ccc(Cl)cc1 (configuration not stated)	6.15 (≈ 13.1 µM)	Dose-dependent effect	11.6	839.68	278	23.9					
COc1ccc(C(Nc2ccc(Nc3ccnc4cc(Cl)ccc34)cc2)c2nnnn2C2CCCCC2)cc1OC (configuration not stated)	5.19 (≈ 9.1 µM)	Dose-dependent effect	0.1	49.73	144	853					
CC(C)(C)n1nnnc1C(Nc1ccc(Nc2ccnc3cc(Cl)ccc23)cc1)c1ccc(F)cc1 (configuration not stated)	5.49 (≈ 10.9 µM)	Dose-dependent effect	22.67	3165.31	669	29.5					
CC(C)(C)n1nnnc1C(NCCCNc1ccnc2cc(Cl)ccc12)c1cccc2ccccc12 (configuration not stated)	4.45 (≈ 8.9 µM)	Dose-dependent effect	0.8	58.67	170	216					
COc1ccc(C(NCCCNc2ccnc3cc(Cl)ccc23)c2nnnn2C(C)(C)C)cc1OC (configuration not stated)	5.5 (≈ 10.8 µM)	Dose-dependent effect	2.3	1662.92	138	57.9					
